Test results: PubChem BioAssay AID1963958 (Molecular Pharmacology Branch, DTP, NCI, 2024)
pIC50: −log10 of the molar value.

Test system: MDA-MB-231 multicell spheroids, viability
Assay: Anticancer human tumor MDA-MB-231 cell line growth inhibition [PI3K];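 note: spheroids exposed to agents for seven days before reading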;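 for viability, T/C: percent of vehicle control luminescence with DMSO treated spheroids as 100%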
Settings: for pIC50: curve of first compound; for viability, T/C: stronger effect = lower value
In short: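 Complex 3D spheroids (cancer cells + endothelial HUVEC + mesenchymal stem cells); drug pairs of targeted agent x inavolisib/alpelisib/duvelisib/copanlisib; half-log series from ~Cmax, max 10 microM if Cmax unknown; endpoint viability.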

[1] = second compound 0.0316 µM, first compound 0.0316 µM
[2] = second compound 0.0316 µM, first compound 0.1 µM
[3] = second compound 0.0316 µM, first compound 0.316 µM
[4] = second compound 0.0316 µM, first compound 1 µM
[5] = second compound 0.0316 µM, first compound 3.16 µM
[6] = second compound 0.0316 µM, first compound 10 µM
[7] = second compound 0.1 µM, first compound 0.0316 µM
[8] = second compound 0.1 µM, first compound 0.1 µM
[9] = second compound 0.1 µM, first compound 0.316 µM
[10] = second compound 0.1 µM, first compound 1 µM
[11] = second compound 0.1 µM, first compound 3.16 µM
[12] = second compound 0.1 µM, first compound 10 µM
[13] = second compound 0.316 µM, first compound 0.0316 µM
[14] = second compound 0.316 µM, first compound 0.1 µM
[15] = second compound 0.316 µM, first compound 0.316 µM
[16] = second compound 0.316 µM, first compound 1 µM
[17] = second compound 0.316 µM, first compound 3.16 µM
[18] = second compound 0.316 µM, first compound 10 µM
[19] = second compound 1 µM, first compound 0.0316 µM
[20] = second compound 1 µM, first compound 0.1 µM
[21] = second compound 1 µM, first compound 0.316 µM
[22] = second compound 1 µM, first compound 1 µM
[23] = second compound 1 µM, first compound 3.16 µM
[24] = second compound 1 µM, first compound 10 µM
[25] = second compound 3.16 µM, first compound 0.0316 µM
[26] = second compound 3.16 µM, first compound 0.1 µM
[27] = second compound 3.16 µM, first compound 0.316 µM
[28] = second compound 3.16 µM, first compound 1 µM
[29] = second compound 3.16 µM, first compound 3.16 µM
[30] = second compound 3.16 µM, first compound 10 µM
[31] = second compound 10 µM, first compound 0.0316 µM
[32] = second compound 10 µM, first compound 0.1 µM
[33] = second compound 10 µM, first compound 0.316 µM
[34] = second compound 10 µM, first compound 1 µM
[35] = second compound 10 µM, first compound 3.16 µM
[36] = second compound 10 µM, first compound 10 µM

With `C#Cc1c(F)ccc2cc(O)cc(-c3ncc4c(N5CC6CCC(C5)N6)nc(OCC56CCCN5CC(F)C6)nc4c3F)c12` (stereo not drawn) + CC(Nc1ncnc2nc[nH]c12)c1cc2cccc(Cl)c2c(=O)n1-c1ccccc1 the pIC50 (second compound 0.0316 µM) was under 5.00, the pIC50 (second compound 0.1 µM) was under 5.00 and the pIC50 (second compound 0.316 µM) was under 5.00. The pIC50 (second compound 1 µM) was 5.18, the pIC50 (second compound 3.16 µM) was 5.71 and the pIC50 (second compound 10 µM) was 7.41. For the same molecule, the viability, T/C [1] was 109%, the viability, T/C [2] was 96.2% and the viability, T/C [3] was 103%. For the same molecule, the viability, T/C [4] was 94.6%, the viability, T/C [5] was 89.9% and the viability, T/C [6] was 61.1%. It also gave a viability, T/C [7] of 101%, a viability, T/C [8] of 99.1% and a viability, T/C [9] of 90.6%. The viability, T/C [10] was 88.3%, the viability, T/C [11] was 79.5% and the viability, T/C [12] was 57.7%. For the same molecule, the viability, T/C [13] was 99.2%, the viability, T/C [14] was 89% and the viability, T/C [15] was 87.6%. The viability, T/C [16] was 86.4%, the viability, T/C [17] was 77.5% and the viability, T/C [18] was 53.2%. It also gave a viability, T/C [19] of 75.5%, a viability, T/C [20] of 83.2% and a viability, T/C [21] of 90.2%. For the same molecule, the viability, T/C [22] was 72.8%, the viability, T/C [23] was 62.4% and the viability, T/C [24] was 43.5%. It also gave a viability, T/C [25] of 65.5%, a viability, T/C [26] of 62.8% and a viability, T/C [27] of 56.6%. For the same molecule, the viability, T/C [28] was 56.5%, the viability, T/C [29] was 46.7% and the viability, T/C [30] was 33.1%. It also gave a viability, T/C [31] of 51.4%, a viability, T/C [32] of 46.8% and a viability, T/C [33] of 44.4%. For the same molecule, the viability, T/C [34] was 39.8%, the viability, T/C [35] was 35.4% and the viability, T/C [36] was 26.4%.
`C=CC(=O)N1CCN(c2nc(=O)n(-c3c(C)ccnc3C(C)C)c3nc(-c4c(O)cccc4F)c(F)cc23)C(C)C1` (stereo not drawn) + CC(Nc1ncnc2nc[nH]c12)c1cc2cccc(Cl)c2c(=O)n1-c1ccccc1 was tested, and the pIC50 (second compound 0.0316 µM) was under 5.00, the pIC50 (second compound 0.1 µM) was under 5.00 and the pIC50 (second compound 0.316 µM) was under 5.00. It also gave a pIC50 (second compound 1 µM) of under 5.00, a pIC50 (second compound 3.16 µM) of under 5.00 and a pIC50 (second compound 10 µM) of under 5.00. For the same molecule, the viability, T/C [1] was 104%, the viability, T/C [2] was 110% and the viability, T/C [3] was 115%. The viability, T/C [4] was 134%, the viability, T/C [5] was 131% and the viability, T/C [6] was 118%. It also gave a viability, T/C [7] of 111%, a viability, T/C [8] of 103% and a viability, T/C [9] of 113%. The viability, T/C [10] was 132%, the viability, T/C [11] was 131% and the viability, T/C [12] was 118%. The viability, T/C [13] was 101%, the viability, T/C [14] was 98.7% and the viability, T/C [15] was 111%. The viability, T/C [16] was 115%, the viability, T/C [17] was 133% and the viability, T/C [18] was 114%. The viability, T/C [19] was 86.9%, the viability, T/C [20] was 90.1% and the viability, T/C [21] was 95.7%. It also gave a viability, T/C [22] of 106%, a viability, T/C [23] of 108% and a viability, T/C [24] of 96%. The viability, T/C [25] was 66.5%, the viability, T/C [26] was 70.9% and the viability, T/C [27] was 73.5%. It also gave a viability, T/C [28] of 79.5%, a viability, T/C [29] of 88.2% and a viability, T/C [30] of 78.4%. For the same molecule, the viability, T/C [31] was 51%, the viability, T/C [32] was 52.5% and the viability, T/C [33] was 55.5%. The viability, T/C [34] was 59%, the viability, T/C [35] was 58.5% and the viability, T/C [36] was 54.6%.
Work on `CC(Cn1ccc(-c2ccc(C#N)c(Cl)c2)n1)NC(=O)c1cc(C(C)O)[nH]n1` (stereo not drawn) + CC(Nc1ncnc2nc[nH]c12)c1cc2cccc(Cl)c2c(=O)n1-c1ccccc1 yielded a pIC50 (second compound 0.0316 µM) of under 5.00, a pIC50 (second compound 0.1 µM) of under 5.00 and a pIC50 (second compound 0.316 µM) of under 5.00. It also gave a pIC50 (second compound 1 µM) of under 5.00, a pIC50 (second compound 3.16 µM) of under 5.00 and a pIC50 (second compound 10 µM) of over 7.50. For the same molecule, the viability, T/C [1] was 100%, the viability, T/C [2] was 95.7% and the viability, T/C [3] was 99.6%. For the same molecule, the viability, T/C [4] was 98.5%, the viability, T/C [5] was 96% and the viability, T/C [6] was 82.3%. It also gave a viability, T/C [7] of 92.9%, a viability, T/C [8] of 98.3% and a viability, T/C [9] of 97.9%. For the same molecule, the viability, T/C [10] was 95.2%, the viability, T/C [11] was 92.4% and the viability, T/C [12] was 78.4%. The viability, T/C [13] was 81.9%, the viability, T/C [14] was 93% and the viability, T/C [15] was 95%. For the same molecule, the viability, T/C [16] was 88.5%, the viability, T/C [17] was 87.9% and the viability, T/C [18] was 75.7%. It also gave a viability, T/C [19] of 70.6%, a viability, T/C [20] of 79.4% and a viability, T/C [21] of 78.4%. The viability, T/C [22] was 79.5%, the viability, T/C [23] was 72.2% and the viability, T/C [24] was 64.5%. For the same molecule, the viability, T/C [25] was 61.3%, the viability, T/C [26] was 61% and the viability, T/C [27] was 61.4%. It also gave a viability, T/C [28] of 56.2%, a viability, T/C [29] of 56.9% and a viability, T/C [30] of 49.2%. The viability, T/C [31] was 47%, the viability, T/C [32] was 44.3% and the viability, T/C [33] was 47.8%. It also gave a viability, T/C [34] of 45.5%, a viability, T/C [35] of 42% and a viability, T/C [36] of 36%.
Molecule `CC1(C)CCC(Nc2ncc(C(F)(F)F)c(-c3c[nH]c4c(P(C)(C)=O)c(C#N)ccc34)n2)CN1` (stereo not drawn) + CC(Nc1ncnc2nc[nH]c12)c1cc2cccc(Cl)c2c(=O)n1-c1ccccc1 has a pIC50 (second compound 0.0316 µM) of 7.50, a pIC50 (second compound 0.1 µM) of 7.50 and a pIC50 (second compound 0.316 µM) of 7.50. It also gave a pIC50 (second compound 1 µM) of over 7.50, a pIC50 (second compound 3.16 µM) of over 7.50 and a pIC50 (second compound 10 µM) of over 7.50. For the same molecule, the viability, T/C [1] was 46.4%, the viability, T/C [2] was 37.8% and the viability, T/C [3] was 41.4%. It also gave a viability, T/C [4] of 53.5%, a viability, T/C [5] of 60.6% and a viability, T/C [6] of 5.54%. It also gave a viability, T/C [7] of 46.3%, a viability, T/C [8] of 38.5% and a viability, T/C [9] of 40.7%. It also gave a viability, T/C [10] of 51.6%, a viability, T/C [11] of 55.6% and a viability, T/C [12] of 5.27%. For the same molecule, the viability, T/C [13] was 45.7%, the viability, T/C [14] was 39.4% and the viability, T/C [15] was 42.5%. The viability, T/C [16] was 48.6%, the viability, T/C [17] was 54.2% and the viability, T/C [18] was 6.2%. For the same molecule, the viability, T/C [19] was 43.9%, the viability, T/C [20] was 34.7% and the viability, T/C [21] was 38.6%. It also gave a viability, T/C [22] of 49.4%, a viability, T/C [23] of 49.6% and a viability, T/C [24] of 4.82%. For the same molecule, the viability, T/C [25] was 39.8%, the viability, T/C [26] was 37% and the viability, T/C [27] was 42.2%. It also gave a viability, T/C [28] of 44.9%, a viability, T/C [29] of 36% and a viability, T/C [30] of 4.74%. For the same molecule, the viability, T/C [31] was 38.4%, the viability, T/C [32] was 34.6% and the viability, T/C [33] was 36%. The viability, T/C [34] was 33.2%, the viability, T/C [35] was 35.5% and the viability, T/C [36] was 3.53%.
